Usually Ki stands for a measure of affinity in units of concentration, obtained from inhibition or displacement. Read a high Ki as lower affinity. As a reminder, the inhibition is how much of the control response was suppressed.

Test [1] addresses T1, Adrenergic receptor alpha-1 (Rattus norvegicus, UniProt P15823+P23944+P43140).
T1 sequence (P15823 whole entry): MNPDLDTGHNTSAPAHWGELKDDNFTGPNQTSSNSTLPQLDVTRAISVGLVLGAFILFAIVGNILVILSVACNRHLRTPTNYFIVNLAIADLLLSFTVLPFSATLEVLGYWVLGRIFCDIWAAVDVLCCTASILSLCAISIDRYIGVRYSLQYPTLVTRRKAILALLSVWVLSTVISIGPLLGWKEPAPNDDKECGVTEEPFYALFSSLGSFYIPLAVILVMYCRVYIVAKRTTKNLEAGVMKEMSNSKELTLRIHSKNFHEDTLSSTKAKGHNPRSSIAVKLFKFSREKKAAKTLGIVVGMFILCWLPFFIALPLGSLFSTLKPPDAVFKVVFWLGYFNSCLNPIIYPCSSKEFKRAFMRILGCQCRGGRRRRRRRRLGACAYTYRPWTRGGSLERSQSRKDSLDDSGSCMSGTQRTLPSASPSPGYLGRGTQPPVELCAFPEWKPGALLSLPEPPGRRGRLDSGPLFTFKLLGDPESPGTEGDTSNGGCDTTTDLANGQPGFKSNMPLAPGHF
T1 sequence (P23944 whole entry): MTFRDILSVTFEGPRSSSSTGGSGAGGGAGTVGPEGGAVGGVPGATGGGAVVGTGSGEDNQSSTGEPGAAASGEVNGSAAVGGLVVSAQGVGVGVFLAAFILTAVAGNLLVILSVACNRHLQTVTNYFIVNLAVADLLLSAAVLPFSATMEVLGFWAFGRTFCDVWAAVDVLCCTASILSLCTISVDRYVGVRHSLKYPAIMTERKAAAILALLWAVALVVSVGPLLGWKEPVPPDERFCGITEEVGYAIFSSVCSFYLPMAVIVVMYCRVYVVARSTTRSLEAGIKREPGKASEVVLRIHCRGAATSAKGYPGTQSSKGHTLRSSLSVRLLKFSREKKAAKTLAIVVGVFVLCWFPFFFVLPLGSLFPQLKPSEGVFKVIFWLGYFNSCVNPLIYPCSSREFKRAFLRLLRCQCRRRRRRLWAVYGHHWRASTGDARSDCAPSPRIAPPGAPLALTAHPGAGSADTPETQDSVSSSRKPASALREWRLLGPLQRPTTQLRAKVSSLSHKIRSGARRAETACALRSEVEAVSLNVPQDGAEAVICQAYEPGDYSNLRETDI
T1 sequence (P43140 whole entry): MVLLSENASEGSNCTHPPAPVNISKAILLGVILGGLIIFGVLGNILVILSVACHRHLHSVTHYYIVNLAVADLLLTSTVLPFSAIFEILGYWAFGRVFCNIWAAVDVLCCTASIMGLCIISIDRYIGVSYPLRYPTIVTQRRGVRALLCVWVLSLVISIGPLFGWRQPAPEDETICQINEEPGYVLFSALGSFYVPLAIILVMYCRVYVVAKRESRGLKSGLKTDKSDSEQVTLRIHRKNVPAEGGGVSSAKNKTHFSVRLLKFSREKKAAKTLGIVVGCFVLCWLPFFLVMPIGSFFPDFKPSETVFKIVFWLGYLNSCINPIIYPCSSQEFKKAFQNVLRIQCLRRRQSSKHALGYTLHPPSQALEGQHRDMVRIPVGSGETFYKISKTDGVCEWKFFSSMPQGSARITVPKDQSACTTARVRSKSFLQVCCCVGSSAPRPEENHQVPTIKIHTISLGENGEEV
Briefly: Tested for Binding affinity towards alpha-1 adrenergic receptor. The class given is protein assay.

Another test is filed under the species Rattus norvegicus. Briefly: Selectivity ratio of alpha1/alpha2d.
The target in test [2] is T2, Alpha-2A adrenergic receptor (Homo sapiens, UniProt P08913).
T2 sequence (P08913 whole entry): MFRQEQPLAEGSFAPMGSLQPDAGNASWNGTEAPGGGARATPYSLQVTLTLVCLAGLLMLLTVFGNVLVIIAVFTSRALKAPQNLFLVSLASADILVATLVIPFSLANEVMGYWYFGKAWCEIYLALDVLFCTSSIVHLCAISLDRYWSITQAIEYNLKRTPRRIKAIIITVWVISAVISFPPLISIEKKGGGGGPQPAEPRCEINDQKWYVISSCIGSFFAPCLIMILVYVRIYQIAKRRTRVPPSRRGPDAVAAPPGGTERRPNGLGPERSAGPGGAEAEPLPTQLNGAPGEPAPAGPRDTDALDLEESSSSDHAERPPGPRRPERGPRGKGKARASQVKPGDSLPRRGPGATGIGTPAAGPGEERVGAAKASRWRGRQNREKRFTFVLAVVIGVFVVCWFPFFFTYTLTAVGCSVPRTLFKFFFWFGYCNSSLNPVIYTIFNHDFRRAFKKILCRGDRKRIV
Briefly: Binding affinity towards Alpha-2A adrenergic receptor.

For test [3], the target named is T3, Alpha-2B adrenergic receptor (Homo sapiens, UniProt P18089).
T3 sequence (P18089 whole entry): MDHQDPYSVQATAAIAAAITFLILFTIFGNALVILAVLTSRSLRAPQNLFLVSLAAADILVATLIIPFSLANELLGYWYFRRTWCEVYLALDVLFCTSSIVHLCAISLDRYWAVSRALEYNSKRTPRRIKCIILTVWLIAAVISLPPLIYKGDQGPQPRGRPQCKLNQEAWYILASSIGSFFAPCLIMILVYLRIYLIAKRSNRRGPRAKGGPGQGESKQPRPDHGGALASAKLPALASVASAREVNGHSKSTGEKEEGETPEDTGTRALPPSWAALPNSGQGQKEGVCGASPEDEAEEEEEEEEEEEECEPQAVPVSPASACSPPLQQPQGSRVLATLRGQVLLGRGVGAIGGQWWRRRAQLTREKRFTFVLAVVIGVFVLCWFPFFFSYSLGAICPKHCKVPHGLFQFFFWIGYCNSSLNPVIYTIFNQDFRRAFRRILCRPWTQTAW
Briefly: Binding affinity towards Alpha-2B adrenergic receptor.

Test [4] has as its target T4, Alpha-2A adrenergic receptor (Rattus norvegicus, UniProt P22909).
T4 sequence (P22909 whole entry): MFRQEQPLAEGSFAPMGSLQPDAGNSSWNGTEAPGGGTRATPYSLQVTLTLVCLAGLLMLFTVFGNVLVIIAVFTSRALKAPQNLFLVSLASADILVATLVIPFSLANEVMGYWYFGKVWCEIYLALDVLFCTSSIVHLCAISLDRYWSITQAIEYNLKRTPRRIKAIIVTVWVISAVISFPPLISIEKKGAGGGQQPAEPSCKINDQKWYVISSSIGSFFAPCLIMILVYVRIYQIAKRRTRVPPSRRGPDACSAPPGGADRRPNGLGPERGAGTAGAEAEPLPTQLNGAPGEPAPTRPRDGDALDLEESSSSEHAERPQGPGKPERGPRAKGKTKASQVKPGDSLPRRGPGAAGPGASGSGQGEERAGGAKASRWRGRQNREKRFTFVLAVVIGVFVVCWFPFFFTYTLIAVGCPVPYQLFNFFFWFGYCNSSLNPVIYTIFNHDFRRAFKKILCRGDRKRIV
The test is described as follows: Binding affinity towards alpha-2D adrenergic receptor.

The target in test [5] is T5, Alpha-2C adrenergic receptor (Homo sapiens) (UniProt P18825).
T5 sequence (whole entry): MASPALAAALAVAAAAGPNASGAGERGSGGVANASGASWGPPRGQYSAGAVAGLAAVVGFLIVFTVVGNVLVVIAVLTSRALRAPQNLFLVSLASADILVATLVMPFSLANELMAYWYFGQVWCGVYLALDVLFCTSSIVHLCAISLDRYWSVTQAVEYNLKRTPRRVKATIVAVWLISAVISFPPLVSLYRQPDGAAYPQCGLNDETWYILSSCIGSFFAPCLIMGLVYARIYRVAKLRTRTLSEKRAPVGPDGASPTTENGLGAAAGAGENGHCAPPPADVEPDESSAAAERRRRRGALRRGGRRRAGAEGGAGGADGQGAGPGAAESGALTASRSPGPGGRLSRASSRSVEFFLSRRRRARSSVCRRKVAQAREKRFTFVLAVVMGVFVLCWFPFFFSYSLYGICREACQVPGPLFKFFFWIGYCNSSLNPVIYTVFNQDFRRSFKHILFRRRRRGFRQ
Briefly: Tested for Binding affinity towards alpha-2C adrenergic receptor in rat cells at 1 uM. It is filed as cell-based.

Test [6] has as its target T6, Alpha-2A adrenergic receptor (Homo sapiens) (UniProt P08913).
T6 sequence (whole entry): T2 sequence (P08913 whole entry)
The test is described as follows: Tested for Binding affinity towards Alpha-2A adrenergic receptor at 1 uM.

In test [7] the target is T3, Alpha-2B adrenergic receptor. Briefly: Tested for Binding affinity towards alpha-2B adrenergic receptor.
The target of test [8] is T7, Alpha-2C adrenergic receptor (Homo sapiens, UniProt P18825).
T7 sequence (P18825 whole entry): T5 sequence (whole entry)
The test is described as follows: Binding affinity towards alpha-2C adrenergic receptor.

In [1], `Cc1cccc([C@H](C)c2c[nH]cn2)c1C` [DEXMEDETOMIDINE] displayed a Ki of 5 nM. Also, the Ratio in the test filed under Rattus norvegicus was 333.
For the compound `Cc1sc(C)c2c1CCC=C2c1c[nH]cn1`, the Ratio in the test filed under Rattus norvegicus came out at 11600.
Consider `c1cc(-c2c[nH]cn2)c2ccsc2c1`, for which the Ki in [2] turned out to be 277 nM; in test [3], 663 nM. Besides, in the test filed under Rattus norvegicus, the Ratio came out at 132.
`Cc1cccc([C@H](C)c2cnc[nH]2)c1C` [DEXMEDETOMIDINE]: the Ki in test [4] was 0.015 nM.
Consider `c1nc(C2CCCc3ccsc32)c[nH]1` (stereo not drawn), for which the inhibition in [5] was 54%; in test [6] it was 87%. The Ratio in the test listed under Rattus norvegicus was 260.
On to `C1=C(c2cnc[nH]2)c2sccc2CC1`, for which the Ki was found to be 224 nM in test [2] and 940 nM in test [7].
With `Cc1sc(C)c2c1CCCC2c1c[nH]cn1` (stereo not drawn), the Ki in test [8] was determined as 205 nM; in test [2], 68 nM; in [3], 141 nM. Further, the Ratio in the test filed under Rattus norvegicus turned out to be 17.
For the compound `C1=C(c2c[nH]cn2)c2ccsc2CC1`, the results for the Ki in test [2] and in test [3] were 254 nM and 621 nM, respectively. Also, the Ratio in the test listed under Rattus norvegicus is 295.
Consider `Cc1sc(C)c2c1CCC=C2c1cnc[nH]1`, for which the Ki in test [8] amounted to 26 nM; in [2], 25 nM; in test [4], 8.6 nM; in [3], 100 nM.
Regarding `c1nc(C2CCCc3sccc32)c[nH]1` (stereo not drawn), the results for the Ki in [8], in test [2] and in [3] were 172 nM, 27 nM and 99 nM, respectively. The Ratio in the test listed under Rattus norvegicus was determined as 196.
As to `C1=C(c2c[nH]cn2)c2sccc2CC1`, the Ratio in the test filed under Rattus norvegicus stood at 133.
